We go through three compounds from publication PMC11002876, “KcsA-Kv1.x chimeras with complete ligand-binding sites provide improved predictivity for screening selective Kv1.x blockers” (The Journal of Biological Chemistry, 2024).

This experiment deals with T1, KcsA-Kv1.2 T-only chimera (Streptomyces lividans, UniProt P0A334, A54E/A57S/G53D/G56E/I60P/L59F/P55R/R52A/R64D/T61S/Y62I).
T1 sequence (P0A334 1-160 R52A/G53D/A54E/P55R/G56E/A57S/L59F/I60P/T61S/Y62I/R64D): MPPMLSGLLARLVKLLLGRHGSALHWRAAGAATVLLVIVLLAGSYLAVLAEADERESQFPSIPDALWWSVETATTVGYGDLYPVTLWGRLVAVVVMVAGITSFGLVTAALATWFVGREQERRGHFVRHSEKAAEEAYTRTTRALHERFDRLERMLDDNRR
Nature of the experiment: Phage-binding competition assay, KcsA-Kv1.2 T-only. Set-up: species or system human Kv1.2 turret in Streptomyces lividans KcsA. How it is done:
Phage stock solutions were diluted to working concentration with phage resuspension buffer supplemented with 2 mM DDM. For protein immobilization, the following amounts were used in a final volume of 50 μl/well: wt KcsA, 0.1 μg; KcsA-Kv1.1 T-only, 0.005 μg; KcsA-Kv1.1 T+F, 0.02 μg; KcsA-Kv1.2 T-only, 0.01 μg; KcsA-Kv1.2 T+F, 0.1 μg; KcsA-Kv1.3 T-only, 0.01 μg; and KcsA-Kv1.3 T+F, 0.1 μg. Protein samples were diluted in 50 μl of storage buffer (20 mM Tris pH8.0, 300 mM KCl, 2 mM DDM) and were added to the designated wells of a Pierce Clear, 96-Well Nickel Coated Plate (15442, Thermo Fisher Scientific), then incubated for 1 h at room temperature on a horizontal shaker at 130 rpm. The plate was blocked for 1 h at room temperature with 180 μl/well TBS-BSA supplemented with 1 mM DDM. Following blocking, the wells were washed 4× with washing buffer (300 μl TBS-Tween, 0.1% v/v) using a Wellwash Versa microplate washer (Thermo Fisher Scientific); then 50 μl phage solution (in TBS-BSA-Tween, 0.1% v/v, 2 mM DDM) at determined phage concentration was added to the wells and incubated for 1 h at room temperature on a horizontal shaker. The plate was washed 4× with washing buffer, then 50 μl anti-M13 IgG HRP (MA5-36125, Invitrogen) diluted to 1:2500 in TBS-Tween (0.1% v/v) was added to the wells and incubated for 1 h at room temperature. The plate was washed again 4× with 300 μl/well washing buffer. Finally, 50 μl/well 1-Step Ultra TMB-ELISA solution (34028, Thermo Fisher Scientific) was added to the wells, and the developing signal was stopped with 50 μl 1M HCl after 5 to 10 min. The light absorbance signal was read at 450 nm with Byonoy absorbance 96 plate reader (Byonoy GmbH).
For protein immobilization, the following amounts were used in a final volume of 50 μl/well: KcsA-Kv1.1 T-only, 0.005 μg; KcsA-Kv1.1 T+F, 0.01 μg; KcsA-Kv1.2 T-only, 0.025 μg; KcsA-Kv1.2 T+F, 0.0125 μg; KcsA-Kv1.3 T-only, 0.01 μg; and KcsA-Kv1.3 T+F, 0.1 μg. Protein samples were diluted in storage buffer. Binding of given concentrations of relevant ligand-displaying phages quantified by light absorbance ([…]) were investigated in a similar manner as in phage ELISA-binding assay, while different concentrations of competing toxin test substances were applied simultaneously. The results were converted to percent inhibitions (percent displacement) of the indicator phage binding, and relative affinities of the tested toxins were assessed by plotting percent displacements against log concentrations and determining half maximal inhibitory concentrations (IC50) by sigmoidal curve fitting using “Sigmoidal dose-response (variable slope) with least squares method” algorithm in GraphPad Prism 8 using the following equation: Y=Bottom+Top−Bottom/1+10^(LogEC50−×)⋅HillSlope

[1] abbreviates: HgTx1-phage competition, KcsA-Kv1.2 T-only, value given in figure, sigmoidal fit to means of three replicates, read-out: IC50 (Fig. 7E).

pIC50: −log10 of the molar value. Like-named read-outs stand apart in the source and are kept apart here. Where a SMILES comes first, the peptide text is derived from it. A value given as a limit tells only on which side of the number the result lay.

For the compound `CC[C@H](C)[C@H](NC(=O)[C@H](CCC(=O)O)NC(=O)[C@@H](NC(=O)CN)C(C)C)C(=O)N[C@@H](CC(N)=O)C(=O)N[C@H](C(=O)N[C@@H](CCCCN)C(=O)N[C@H]1CSSC[C@@H]2NC(=O)[C@H](CCCCN)NC(=O)CNC(=O)[C@H](Cc3ccccc3)NC(=O)[C@H](CCCNC(=N)N)NC(=O)[C@H](CCSC)NC(=O)CNC(=O)[C@H](C)NC(=O)[C@H](CC(=O)O)NC(=O)[C@H](CCCCN)NC(=O)[C@@H]3CSSC[C@@H](C(=O)N[C@H](C(=O)N4CCC[C@H]4C(=O)N[C@@H](CCCCN)C(=O)O)[C@@H](C)O)NC(=O)[C@H](Cc4c[nH]cn4)NC(=O)[C@H](CSSC[C@H](NC(=O)[C@H](CCC(N)=O)NC(=O)[C@@H]4CCCN4C(=O)[C@H](CO)NC(=O)CNC(=O)[C@H](CO)NC1=O)C(=O)N[C@@H](CC(C)C)C(=O)N[C@@H](CCCCN)C(=O)N1CCC[C@H]1C(=O)N3)NC(=O)[C@H](CCCCN)NC(=O)[C@H](CCCNC(=N)N)NC(=O)[C@H](CC(N)=O)NC(=O)[C@H](CCSC)NC2=O)C(C)C` [KTX1, Kaliotoxin-1], the pIC50 (usually the negative decadic logarithm of the IC50, by convention in mol/L) under setting [1] was 9.73. `CC[C@H](C)[C@@H]1NC(=O)[C@@H]2CSSC[C@H](NC(=O)[C@H](CO)NC(=O)[C@@H](N)C(C)C)C(=O)N[C@@H]([C@@H](C)O)C(=O)NCC(=O)N[C@@H](CO)C(=O)N[C@@H](CCCCN)C(=O)N[C@@H](CC(=O)O)C(=O)N[C@@H](CSSC[C@@H](C(=O)N[C@@H](CCCCN)C(=O)N[C@H]3CSSC[C@@H](C(N)=O)NC(=O)CNC(=O)[C@H](Cc4ccc(O)cc4)NC3=O)NC(=O)[C@H](CO)NC(=O)[C@H](CCCCN)NC(=O)[C@H](CC(N)=O)NC1=O)C(=O)N[C@@H](Cc1ccc(O)cc1)C(=O)N[C@@H](C)C(=O)N1CCC[C@H]1C(=O)N[C@H]1CSSC[C@H](NC(=O)CNC(=O)[C@H]([C@@H](C)O)NC(=O)[C@H](CCC(N)=O)NC(=O)[C@H](CCCCN)NC(=O)[C@H](CCCNC(=N)N)NC1=O)C(=O)N1CCC[C@H]1C(=O)N[C@@H](CC(N)=O)C(=O)N[C@@H](C)C(=O)N[C@@H](CCCCN)C(=O)N2` [MTX, Maurotoxin] (HELM PEPTIDE1{V.S.C.T.G.S.K.D.C.Y.A.P.C.R.K.Q.T.G.C.P.N.A.K.C.I.N.K.S.C.K.C.Y.G.C.[am]}$PEPTIDE1,PEPTIDE1,3:R3-24:R3|PEPTIDE1,PEPTIDE1,9:R3-29:R3|PEPTIDE1,PEPTIDE1,13:R3-19:R3|PEPTIDE1,PEPTIDE1,31:R3-34:R3$$$V2.0; N-terminus and C-terminus assumed): the pIC50 (displacement of HgTx1-phage, KcsA-Kv1.2 T-only 0.025 μg/well on nickel-coated plate, mean ± SD (n = 3), NQ = not quantifiable, read-out: IC50, T-only chimera (Kv1.2)) was less than 6.00.

In the case of `CC[C@H](C)[C@@H]1NC(=O)[C@@H](NC(=O)[C@H](CO)NC(=O)[C@@H](N)CCCNC(=N)N)CSSC[C@@H](C(=O)O)NC(=O)[C@H]([C@@H](C)O)NC(=O)CNC(=O)[C@@H]2CSSC[C@@H]3NC(=O)[C@H](CCC(N)=O)NC(=O)[C@H](Cc4ccccc4)NC(=O)[C@H](C)NC(=O)[C@H]([C@@H](C)O)NC(=O)[C@H](CSSC[C@H](NC(=O)[C@H](Cc4ccccc4)NC(=O)[C@H](CO)NC(=O)[C@H](CC(C)C)NC(=O)[C@H](CCCNC(=N)N)NC(=O)[C@H](Cc4ccc(O)cc4)NC(=O)[C@H](CCCCN)NC(=O)[C@H](CCSC)NC(=O)[C@H](CO)NC(=O)[C@H](Cc4c[nH]cn4)NC(=O)[C@H](CCCCN)NC3=O)C(=O)N[C@@H](CCCNC(=N)N)C(=O)N[C@@H](CCCCN)C(=O)N[C@@H]([C@@H](C)O)C(=O)N2)NC(=O)[C@H](CCCNC(=N)N)NC(=O)[C@H](CO)NC(=O)[C@H](CCCCN)NC(=O)[C@@H]2CCCN2C(=O)[C@H]([C@@H](C)CC)NC(=O)[C@H]([C@@H](C)O)NC(=O)[C@H](CC(=O)O)NC1=O` [ShK, Stichodactyla toxin], the pIC50 under setting [1] was 10.15.
